Results: patent publication US20210078958A1, “QUINAZOLINE DERIVATIVE AND USE THEREOF” (MEDSHINE DISCOVERY INC., priority 2017, published 2021)

Assays:
HER2 (ErbB2) = HER2 (ErbB2) (Homo sapiens, UniProt P04626); test: in vitro enzyme activity, HER2 (ErbB2); type: biochemical; settings: human ErbB2, [γ-33P]ATP, poly(Glu, Tyr) substrate
Description: (§1) The purpose of this assay is to detect the in vitro inhibitory activity of compounds on HER1 (ErbB1), HER2 (ErbB2), and HER4 (ErbB4). The enzymes used in this assay are human ErbB1, ErbB2 and ErbB4. Eurofins Pharma Discovery Service provided the method for activity detection.
(§2) Steps and Method of the Assay (96-Well Plate):
(§3) A buffer solution of the test compounds in a dilution of 5-fold (5 μL), polypeptide substrate poly(Glu, Tyr) (4:1) (2.5 μL), ErbB (4-20 ng, 2.5 μL), MnCl2 (50 mM, 1.25 μL), dH2O (3.75 μL), and [γ-^33P]ATP (10 μL) were added, and incubated at 30° C. for 10 minutes. The reaction was terminated by adding 3% phosphoric acid. 10 μL of the sample was taken and transferred to Filtermate A. The filter disc was washed 3 times with 75 mM phosphoric acid and once with methanol. The filter disc was transferred to a sealed plastic bag and the scintillation mixture (4 mL) was added. The intensity of the emitted photon was detected by a scintillation luminescence counter. The CPM (times/min) of the enzyme sample was compared with the CPM of the internal control sample. The level of photon intensity reflected the degree of the tyrosine kinase activity.

HER1 (ErbB1) = HER1 (ErbB1) (Homo sapiens, UniProt P00533); test: in vitro enzyme activity, HER1 (ErbB1); type: biochemical; settings: human ErbB1, [γ-33P]ATP, poly(Glu, Tyr) substrate
Sequence of HER1 (ErbB1) (P00533 25-1210): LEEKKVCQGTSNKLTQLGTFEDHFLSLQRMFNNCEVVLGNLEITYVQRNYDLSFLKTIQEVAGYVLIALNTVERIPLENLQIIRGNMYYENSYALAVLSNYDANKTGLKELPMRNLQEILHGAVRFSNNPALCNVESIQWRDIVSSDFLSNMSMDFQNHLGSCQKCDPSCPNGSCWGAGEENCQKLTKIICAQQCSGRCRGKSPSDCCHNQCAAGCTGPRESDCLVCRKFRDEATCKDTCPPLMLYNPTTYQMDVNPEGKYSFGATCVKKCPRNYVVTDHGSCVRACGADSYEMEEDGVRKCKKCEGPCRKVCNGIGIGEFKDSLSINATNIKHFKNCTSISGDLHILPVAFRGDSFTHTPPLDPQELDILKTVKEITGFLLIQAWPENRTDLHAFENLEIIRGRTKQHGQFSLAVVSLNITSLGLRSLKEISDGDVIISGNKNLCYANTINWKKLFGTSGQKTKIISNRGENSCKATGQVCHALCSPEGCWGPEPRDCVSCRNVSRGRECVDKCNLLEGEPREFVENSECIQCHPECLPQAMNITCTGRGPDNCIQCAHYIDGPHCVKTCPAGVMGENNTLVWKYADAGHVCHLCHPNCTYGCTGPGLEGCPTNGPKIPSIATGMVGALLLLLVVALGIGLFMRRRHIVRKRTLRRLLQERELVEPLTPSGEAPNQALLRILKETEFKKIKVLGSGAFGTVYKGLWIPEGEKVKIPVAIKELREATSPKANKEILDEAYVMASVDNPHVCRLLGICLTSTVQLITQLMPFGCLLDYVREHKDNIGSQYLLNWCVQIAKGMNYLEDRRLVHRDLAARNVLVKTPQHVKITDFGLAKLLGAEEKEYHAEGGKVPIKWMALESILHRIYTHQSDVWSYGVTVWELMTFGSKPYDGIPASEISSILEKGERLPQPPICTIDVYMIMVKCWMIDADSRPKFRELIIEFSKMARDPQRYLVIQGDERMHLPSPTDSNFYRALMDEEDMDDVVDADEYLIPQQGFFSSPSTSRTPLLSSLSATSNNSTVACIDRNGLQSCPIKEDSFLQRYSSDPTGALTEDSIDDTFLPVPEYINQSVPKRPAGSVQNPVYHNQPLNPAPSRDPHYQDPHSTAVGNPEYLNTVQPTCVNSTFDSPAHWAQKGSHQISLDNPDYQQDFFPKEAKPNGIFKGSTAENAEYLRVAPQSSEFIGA
Description: as §1, §2, §3

OE19 cells = test: CTG assay of OE19 cells; type: cell-based; settings: Homo sapiens, 72 hours of cell culture, Cell Titer Glo
Description: OE19 cells with saturation of 80%-90% were digested with trypsin, centrifuged, resuspended and counted. The concentration of cells was adjusted to […]. OE19 cells were added to a 96-well cell culture plate to 8000 OE19 cells per well. The cells were cultured in a cell incubator containing 5% CO2 at 37° C. overnight.
The stock solution of the test compounds was serially 3-fold diluted with DMSO to a total of 10 concentrations. Before the start of the assay, the serially diluted test compounds were further diluted to 10× compound solutions (the compound with a highest concentration contains 1% DMSO) with cell culture medium under sterile conditions. The prepared 10× compound solutions were added to the cell culture plate, and the 10 μL compound solution was added to each well. In this way, the final concentrations of staurosporine as the standard control and all the test compounds were obtained starting from […] as the initial concentration in a 3-fold serial dilution to get 10 test concentrations.
After 72 hours of cell culture, the 96-well cell culture plate was taken out. Cell Titer Glo reagent was added at […], mixed, centrifuged, and incubated at room temperature in the dark for 10 minutes. The cell plate was placed in Envision for reading.
The inhibition rate was calculated according to original data as follows:
Inhibition %=(ZPE−sample detection value)/(ZPE−HPE)×100%
The well containing 10 mM staurosporine on DAY3 (the first day of the assay is the day when compounds were added, and DAY3 is the day when reading is perfomed) was used as the HPE (100% inhibition control) well, and the well containing 0.1% DMSO on DAY3 was used as the ZPE (0% inhibition control) well. Each concentration of test compounds was tested in duplicate.
Non-linear regression analysis was performed using the processed data and GraphPad Prism 6 analysis software to obtain a dose-response curve, and the half-inhibitory concentration (IC50) of the test compounds on OE19 cells was calculated.

OE21 cell = test: inhibitory activity on cell proliferation (Cell-Titer-Glo), OE21; type: cell-based; settings: Homo sapiens, OE21, 72 h, incubation for 3 days
Text: (§4) Purpose of the assay: to detect the inhibitory activity of the test compounds on cell proliferation.
(§5) Principle of the assay: the luciferase in a Cell-Titer-Glo reagent produces oxidized luciferin with luciferin, oxygen and ATP as reaction substrates, and releases energy in the form of light. Since the luciferase reaction requires ATP, the total amount of light generated by the reaction is proportional to the total amount of ATP that reflects cell viability.
(§6) Cell Titer-Glo cell viability assay kit with luminescence (Promega #G7573)
(§7) According to the schematic diagram of the cell seed plate, cells were seeded in a 384- or 96-well plate at a density of 1000 cells per well and 25 μL per well, and 25 μL of PBS was added to the wells near edge of the place where no cells were seeded.
(§8) (1) The stock solution of the compounds has a concentration of 10 mM, and the compounds were diluted with DMSO to an initial concentration of 4 mM. The compounds were added to the plate with stock solution of compounds, 9 μL per well.
(§9) (2) The compounds were diluted with an ECHO liquid workstation, where 125 nL of compounds were added to each well of the cell plate, 125 nL of DMSO was added to each of the cell well in columns 2 and 23, and 125 nL of DMSO was added to each PBS well in columns 1 and 24.
(§10) 2.3 After addition of the compounds, the cell plate was centrifuged at 1000 rpm for 1 min, and then placed in a 37° C., 5% CO2 incubator for incubation for 3 days.
(§11) The cell plate was taken out from the incubator and equilibrated at room temperature for 30 minutes. 25 μL of Cell-Titer-Glo reagent was added to each well, shaken for one minute to allow well mixed, and centrifuged at 1000 rpm for 1 minute. After 10 minutes, the plate was read on PerkinElmer Envision, and the […] reading time was set to 0.2 second.

HER4 (ErbB4) = HER4 (ErbB4) (Homo sapiens, UniProt Q15303); test: in vitro enzyme activity, HER4 (ErbB4); type: biochemical; settings: human ErbB4, [γ-33P]ATP, poly(Glu, Tyr) substrate
Sequence of HER4 (ErbB4) (Q15303 26-1308): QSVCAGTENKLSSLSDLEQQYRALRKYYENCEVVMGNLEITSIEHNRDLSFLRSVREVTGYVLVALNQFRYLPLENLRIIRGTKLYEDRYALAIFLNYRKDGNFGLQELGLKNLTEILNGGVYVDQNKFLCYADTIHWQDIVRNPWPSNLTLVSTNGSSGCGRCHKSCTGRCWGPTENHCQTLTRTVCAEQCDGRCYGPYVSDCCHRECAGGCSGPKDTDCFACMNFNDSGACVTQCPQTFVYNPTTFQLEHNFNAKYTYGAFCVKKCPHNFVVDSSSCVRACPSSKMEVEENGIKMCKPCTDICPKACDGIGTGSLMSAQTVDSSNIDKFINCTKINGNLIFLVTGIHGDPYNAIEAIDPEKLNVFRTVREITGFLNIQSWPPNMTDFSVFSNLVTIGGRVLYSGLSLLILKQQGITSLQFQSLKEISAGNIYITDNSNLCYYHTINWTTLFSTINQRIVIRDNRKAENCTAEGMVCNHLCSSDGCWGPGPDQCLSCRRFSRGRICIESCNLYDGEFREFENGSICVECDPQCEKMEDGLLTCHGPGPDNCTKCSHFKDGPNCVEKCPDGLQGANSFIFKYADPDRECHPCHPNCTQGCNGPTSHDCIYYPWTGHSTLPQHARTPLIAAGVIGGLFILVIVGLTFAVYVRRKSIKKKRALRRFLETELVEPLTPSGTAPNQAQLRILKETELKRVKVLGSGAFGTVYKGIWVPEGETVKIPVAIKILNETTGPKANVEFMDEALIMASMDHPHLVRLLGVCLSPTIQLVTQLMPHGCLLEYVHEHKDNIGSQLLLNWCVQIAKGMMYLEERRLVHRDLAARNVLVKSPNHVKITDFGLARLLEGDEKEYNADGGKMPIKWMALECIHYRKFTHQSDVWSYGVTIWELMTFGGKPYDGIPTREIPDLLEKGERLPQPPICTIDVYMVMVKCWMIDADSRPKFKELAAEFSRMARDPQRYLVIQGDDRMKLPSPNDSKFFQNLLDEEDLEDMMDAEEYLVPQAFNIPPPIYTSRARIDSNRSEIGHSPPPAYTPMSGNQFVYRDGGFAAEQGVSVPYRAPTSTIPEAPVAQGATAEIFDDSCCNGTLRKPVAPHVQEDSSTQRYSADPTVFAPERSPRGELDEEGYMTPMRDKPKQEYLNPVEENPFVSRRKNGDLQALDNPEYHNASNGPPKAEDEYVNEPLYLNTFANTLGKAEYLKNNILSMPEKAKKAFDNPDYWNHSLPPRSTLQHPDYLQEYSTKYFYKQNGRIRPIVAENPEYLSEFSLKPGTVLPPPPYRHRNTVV
Description: as §1, §2, §3

NCI-N87 cell = test: inhibitory activity on cell proliferation (Cell-Titer-Glo), NCI-N87; type: cell-based; settings: Homo sapiens, NCI-N87, 72 h; incubation for 3 days, Cell-Titer-Glo
Text: as §4, §5, §6, §7, §8, §9, §10, §11

Sequence of HER2 (ErbB2) (P04626 23-1255): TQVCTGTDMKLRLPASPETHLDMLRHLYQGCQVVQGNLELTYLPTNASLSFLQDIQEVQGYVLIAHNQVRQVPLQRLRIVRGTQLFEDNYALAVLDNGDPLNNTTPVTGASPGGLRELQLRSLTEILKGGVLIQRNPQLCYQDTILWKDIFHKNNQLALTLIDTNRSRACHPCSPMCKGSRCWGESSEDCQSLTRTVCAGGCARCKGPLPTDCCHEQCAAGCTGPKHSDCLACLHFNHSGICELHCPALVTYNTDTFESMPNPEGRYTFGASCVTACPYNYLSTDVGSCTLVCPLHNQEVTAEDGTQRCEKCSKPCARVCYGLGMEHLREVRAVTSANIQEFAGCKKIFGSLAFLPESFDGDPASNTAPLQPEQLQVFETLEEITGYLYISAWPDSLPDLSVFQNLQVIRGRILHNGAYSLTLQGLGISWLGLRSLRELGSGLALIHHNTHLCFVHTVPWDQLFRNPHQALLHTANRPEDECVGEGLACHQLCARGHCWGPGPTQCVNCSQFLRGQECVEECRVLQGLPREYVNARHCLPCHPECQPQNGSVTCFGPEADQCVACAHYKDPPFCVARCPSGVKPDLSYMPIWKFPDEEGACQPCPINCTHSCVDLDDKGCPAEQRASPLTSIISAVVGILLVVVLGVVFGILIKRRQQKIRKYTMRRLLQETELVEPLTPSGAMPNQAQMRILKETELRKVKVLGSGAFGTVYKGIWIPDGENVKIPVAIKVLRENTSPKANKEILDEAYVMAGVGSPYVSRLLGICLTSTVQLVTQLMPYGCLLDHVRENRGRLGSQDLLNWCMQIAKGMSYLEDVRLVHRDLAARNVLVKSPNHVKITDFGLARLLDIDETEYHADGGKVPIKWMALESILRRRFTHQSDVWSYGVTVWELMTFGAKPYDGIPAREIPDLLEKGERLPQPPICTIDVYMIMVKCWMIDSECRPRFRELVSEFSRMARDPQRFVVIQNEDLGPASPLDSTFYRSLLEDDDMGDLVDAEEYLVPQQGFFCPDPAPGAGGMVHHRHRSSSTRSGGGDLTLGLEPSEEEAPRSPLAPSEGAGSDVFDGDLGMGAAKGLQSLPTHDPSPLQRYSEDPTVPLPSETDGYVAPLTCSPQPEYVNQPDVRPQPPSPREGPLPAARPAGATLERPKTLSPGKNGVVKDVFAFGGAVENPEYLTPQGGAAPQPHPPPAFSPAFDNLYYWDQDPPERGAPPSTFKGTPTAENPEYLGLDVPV

SMILES: C=CC(=O)N1[C@@H]2CC[C@H]1C[C@H](Nc1cc3c(Nc4ccc(F)c(Cl)c4F)ncnc3cc1OC)C2 [Example 48]
- IC50 (HER2 (ErbB2)): 11 nM
- IC50 (HER1 (ErbB1)): 9 nM
- IC50 (OE19 cells): 0.24 nM
- IC50 (OE21 cell): 0.17 nM
- IC50 (HER4 (ErbB4)): 4 nM

SMILES: C=CC(=O)N1[C@@H]2CC[C@H]1C[C@H](Oc1cc3c(Nc4ccc(F)c(Cl)c4F)ncnc3cc1OC)C2 [Example 34]
- IC50 (HER2 (ErbB2)): 4 nM
- IC50 (NCI-N87 cell): 0.42 nM
- IC50 (HER1 (ErbB1)): 5 nM
- IC50 (OE19 cells): 0.001 nM
- IC50 (OE21 cell): 0.27 nM
- IC50 (HER4 (ErbB4)): 2 nM
